Structures can show the parent of a compound that is named as a salt. Where two headings read alike, the source gives them in different places.
What was measured:
Test in all cases: biochemical
[1] = target: T1, α-1A adrenoreceptor (rat submaxillary gland) (Rattus norvegicus, UniProt P43140); format: binding; conditions: read-out: Radioligand Binding (Ki, nM) 1A (Rat)
T1 sequence (P43140 1-466): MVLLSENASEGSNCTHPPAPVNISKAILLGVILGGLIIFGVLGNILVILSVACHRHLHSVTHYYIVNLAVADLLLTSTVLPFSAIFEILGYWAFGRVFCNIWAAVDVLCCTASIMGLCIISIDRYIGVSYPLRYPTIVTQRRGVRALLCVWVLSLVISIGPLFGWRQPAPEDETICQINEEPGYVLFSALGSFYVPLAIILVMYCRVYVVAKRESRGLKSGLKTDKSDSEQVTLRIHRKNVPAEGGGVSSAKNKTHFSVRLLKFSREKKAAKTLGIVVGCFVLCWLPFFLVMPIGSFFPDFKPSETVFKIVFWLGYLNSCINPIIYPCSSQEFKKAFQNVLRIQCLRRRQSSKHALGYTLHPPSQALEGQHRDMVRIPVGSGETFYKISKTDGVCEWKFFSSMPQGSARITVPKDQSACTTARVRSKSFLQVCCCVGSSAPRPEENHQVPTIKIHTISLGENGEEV
Experimental: Additionally, binding affinity against the pharrnacologically defined α-1A adrenoreceptor (rat submaxillary gland) was measured.
(§1) On the fifth day of culture, growth medium was removed from cells grown in roller bottles, and the cells were washed twice with PBS (Sigma, 120 mM NaCl, 2.7 mM KCl, 10 mM Na2HPO4-NaH2PO4, pH = 7.4). Cells were detached from the roller bottles by incubating for 15 minutes at 37 °C in a Tris-EDTA solution (10 mM Tris, 100 mM NaCl, 1 mM EDTA, pH = 7.4). The cell suspension from each roller bottle was decanted into tared centrifuge tubes and kept on ice. An aliquot of each cell suspension was generally taken for cell counting. Cells were centrifuged at 3000 X G for 5 min at 2-4 °C, washed with PBS and recentrifuged. The supernatant was decanted and the pellet weighed to determine the wet weight of cells. Cells were washed a final time in 40 vol 5 mM Tris-HCl, 5 mM EDTA, pH = 7.7, and centrifuged at 40,000 X G for 10 minutes. Cells were homogenized in 10 mL of 50 mM Tris-HCl, 5 mM EDTA (pH = 7.4) and diluted to 40 mL/tube. Homogenates were centrifuged at 40,000 X G for 10 minutes. The supernatant was decanted and the pellets rehomogenized in 50 mM Tris-HCl (pH = 7.4) and centrifuged as before. The supernatant was decanted and the homogenate resuspended in 6.25 volumes (per gram wet weight) of 50 mM Tris-HCl and aliquots of the pooled homogenates frozen in liquid N2 and stored at -70 °C until the time of assay. Rat submaxillary glands were used for α-1A adrenoreceptors and were prepared essentially as described (Michel, A. D., Loury, D. N. and Whiting, R. L., Brit. J. Pharmacol. 98: 83-889 (1989)).
(§2) Receptor binding assays for α-1 adrenoreceptors were performed essentially as described by Greengrass and Bremner (Eur. J. Pharmacol. 55: 323-326 (1979)). […] Radioactivity was determined by standard liquid scintillation techniques. Data were analyzed as previously described (Hancock, A. A., Kyncl, J. J., Martin, Y. C. and DeBernardis, J. F., J. Receptor Res. 8: 23-46 (1988)).

α-1a adrenoreceptor = target: T2, α-1a adrenoreceptor (Bos taurus, UniProt P18130); format: binding, bovine; conditions: read-out: Radioligand Binding (Ki, nM) 1a (Bovine)
T2 sequence (P18130 1-466): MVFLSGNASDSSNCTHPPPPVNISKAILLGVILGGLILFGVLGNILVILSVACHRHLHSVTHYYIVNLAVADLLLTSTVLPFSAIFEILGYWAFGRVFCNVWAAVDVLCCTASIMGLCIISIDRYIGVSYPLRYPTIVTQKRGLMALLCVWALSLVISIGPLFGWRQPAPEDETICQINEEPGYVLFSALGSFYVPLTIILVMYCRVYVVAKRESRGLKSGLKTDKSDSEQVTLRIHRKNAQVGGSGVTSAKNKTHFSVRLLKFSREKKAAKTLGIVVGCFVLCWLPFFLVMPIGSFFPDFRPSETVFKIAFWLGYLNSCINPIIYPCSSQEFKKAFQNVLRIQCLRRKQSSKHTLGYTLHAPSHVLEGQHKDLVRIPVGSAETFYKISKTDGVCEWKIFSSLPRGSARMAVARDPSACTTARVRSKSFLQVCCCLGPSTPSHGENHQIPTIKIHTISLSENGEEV
Description: (§3) The cDNA clones encoding the α-1 adrenoreceptors (α-1a, α-1b, and α-1d) were obtained from TULCO (Triangle Universities Licensing Consortium, Research Triangle Park, NC) and inserted into the eukaryotic expression vector SnaB30. In this vector, expression of the adrenoreceptor gene is under the transcriptional control of an SV40 early promoter. Positive drug selection is provided by a neomycin-resistance gene. Mouse fibroblast cells (LTK) were transfected with the α1 expression plasmids and grown in Dulbecco's modified Eagle's medium (DMEM) containing 10% fetal calf serum and 30 µM G418. Stable G418-resistant parental lines were generated, with successful expression of adrenoreceptor protein monitored using radioligand binding techniques. Stable single cell clones derived from the parental lines were screened in adrenoreceptor binding assays to identify clones having high adrenoreceptor density. Roller bottle cultures of the cloned lines were used to provide cell membranes for subsequent adrenoreceptor binding characterization studies. A cell line containing the SnaB30 vector expressing the human erythropoietin gene served as a negative control.
(§4) For adrenoreceptor binding assays, large scale membrane preparations were utilized in which 6 million cells were seeded into small (450 cm^2) Corning tissue culture roller bottles. 200 mL of DMEM containing 10% fetal calf serum and 300 µM G418 were added to each roller bottle. A 95% air / 5% CO2 gas mixture (sterile) was injected into each roller bottle prior to sealing. The bottles were then incubated at 37 °C on a roller rack for 5 days. Cells were re-fed with fresh medium after 3 days in culture.
as §1, §2

α-1b adrenoreceptor = target: T3, α-1b adrenoreceptor (Mesocricetus auratus, UniProt P18841); format: binding, hamster; conditions: [3H]-prazosin radioligand; cloned receptor in LTK cell membranes; read-out: Radioligand Binding (Ki, nM) 1b (Hamster)
T3 sequence (P18841 1-515): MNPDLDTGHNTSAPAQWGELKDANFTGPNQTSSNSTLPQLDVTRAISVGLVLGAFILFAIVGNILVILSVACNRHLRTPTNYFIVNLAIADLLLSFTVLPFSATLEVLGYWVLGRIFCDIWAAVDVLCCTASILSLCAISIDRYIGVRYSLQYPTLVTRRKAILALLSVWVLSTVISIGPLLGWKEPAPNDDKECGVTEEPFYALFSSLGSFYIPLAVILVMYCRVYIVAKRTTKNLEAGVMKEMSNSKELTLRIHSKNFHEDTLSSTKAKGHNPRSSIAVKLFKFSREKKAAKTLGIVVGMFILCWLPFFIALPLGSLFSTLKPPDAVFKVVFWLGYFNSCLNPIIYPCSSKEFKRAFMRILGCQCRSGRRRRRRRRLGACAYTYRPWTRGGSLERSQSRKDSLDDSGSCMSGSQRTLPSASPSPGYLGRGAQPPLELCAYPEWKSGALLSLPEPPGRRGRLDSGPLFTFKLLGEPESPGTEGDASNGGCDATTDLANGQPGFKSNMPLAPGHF
Description: as §3, §4, §1, §2

α-1d adrenoreceptor = target: T4, α-1d adrenoreceptor (Rattus norvegicus, UniProt P23944); format: binding; conditions: read-out: Radioligand Binding (Ki, nM) 1d (Rat)
T4 sequence (P23944 1-561): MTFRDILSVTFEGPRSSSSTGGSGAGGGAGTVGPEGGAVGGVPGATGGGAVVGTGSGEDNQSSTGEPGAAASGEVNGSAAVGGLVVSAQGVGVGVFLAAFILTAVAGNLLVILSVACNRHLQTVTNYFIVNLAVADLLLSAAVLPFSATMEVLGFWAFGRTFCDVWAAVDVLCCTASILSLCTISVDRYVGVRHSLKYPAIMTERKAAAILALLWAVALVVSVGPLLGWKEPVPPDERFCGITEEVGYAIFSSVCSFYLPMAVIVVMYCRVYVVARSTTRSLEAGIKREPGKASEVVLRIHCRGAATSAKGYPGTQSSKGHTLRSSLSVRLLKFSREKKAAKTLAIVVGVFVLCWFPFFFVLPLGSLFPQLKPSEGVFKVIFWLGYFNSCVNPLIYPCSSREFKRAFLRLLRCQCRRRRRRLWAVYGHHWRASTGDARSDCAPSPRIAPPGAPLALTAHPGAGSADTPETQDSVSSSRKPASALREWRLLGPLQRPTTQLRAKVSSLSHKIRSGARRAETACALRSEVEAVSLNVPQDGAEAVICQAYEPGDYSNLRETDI
Description: as §3, §4, §1, §2

[2] = [3H]-prazosin radioligand, rat submaxillary gland membranes
[3] = [3H]-prazosin radioligand, cloned receptor in LTK cell membranes

Row | SMILES | Ki [1, 2] | Ki (α-1a adrenoreceptor; [3]) | Ki (α-1b adrenoreceptor) | Ki (α-1d adrenoreceptor; [3]) | Ki [1] | Ki (α-1a adrenoreceptor) | Ki (α-1d adrenoreceptor)
1 | COc1cccc2c1[C@@H]1CCN(CCCCn3c(=O)[nH]c4c(sc5ncc(-c6ccccc6)nc54)c3=O)C[C@H]1CO2 [Example 100, 3-[4-((4aS,10bR)-trans-10-Methoxy-1,3,4,4a,5,10b-hexahydro-2H-[1]-benzopyrano[3,4-c]pyrido-3-yl)butyl]-8-phenyl-pyrazino[2',3':4,5]thieno[3,2-d]pyrimidine-2,4(1H,3H)-dione hydrochloride] | 30.5 nM | 5.83 nM | 27 nM | 7.59 nM |  |  | 
2 | COc1cccc2c1[C@H]1CN(CCCCn3c(=O)[nH]c4c(sc5ccc(Cl)nc54)c3=O)C[C@@H]1CO2 [Example 6, 3-[4-((3aR,9bS)-trans-9-Methoxy-1,2,3,3a,4,9b-hexahydro-[1]-benzopyrano[3,4-c]pyrrol-2-yl)butyl]-8-chloro-pyrido[2',3':4,5]thieno[3,2-d]pyrimidine-2,4(1H,3H)-dione dihydrochloride] | 0.409 nM | 0.173 nM | 2 nM | 0.302 nM |  |  | 
3 | COc1cccc2c1[C@@H]1CCN(CCCCn3c(=O)[nH]c4c(sc5ccc(-c6ccccc6)nc54)c3=O)C[C@H]1CO2 [Example 101, 3-[4-((4aS,10bR)-trans-10-Methoxy-1,3,4,4a,5,10b-hexahydro-2H-[1]-benzopyrano[3,4-c]pyrido-3-yl)butyl]-8-phenyl-pyrido[2',3':4,5]thieno[3,2-d]pyrimidine-2,4(1H,3H)-dione dihydrochloride] | 1.27 nM | 0.063 nM | 8.41 nM | 0.597 nM |  |  | 
4 | COc1cccc2c1[C@@H]1CN(CCCCn3c(=O)[nH]c4c(sc5c(Cl)ccnc54)c3=O)C[C@H]1CO2 [Example 19, 3-[4-((3aS,9bR)-trans-9-Methoxy-1,2,3,3a,4,9b-hexahydro-[1]-benzopyrano[3,4-c]pyrrol-2-yl)butyl]-6-chloro-pyrido[2',3':4,5]thieno[3,2-d]pyrimidine-2,4(1H,3H)-dione hydrochloride] | 0.059 nM | 0.025 nM | 1.13 nM | 0.108 nM |  |  | 
5 | COc1ccc2sc3c(=O)n(CCCCN4C[C@@H]5COc6cccc(OC)c6[C@H]5C4)c(=O)[nH]c3c2n1 [Example 7, 3-[4-((3aR,9bS)-trans-9-Methoxy-1,2,3,3a,4,9b-hexahydro-[1]-benzopyrano[3,4-c]pyrrol-2-yl)butyl]-8-methoxy-pyrido[2',3':4,5]thieno[3,2-d]pyrimidine-2,4(1H,3H)-dione hydrochloride] | 0.53 nM | 0.215 nM | 1.61 nM | 0.438 nM |  |  | 
6 | COc1cccc2c1[C@@H]1CN(CCCCn3c(=O)[nH]c4c(sc5c(Cl)ccnc54)c3=O)C[C@@H]1CO2 [Example 20, 3-[4-((3aR,9bR-cis-9-Methoxy-1,2,3,3a,4,9b-hexahydro-[1]-benzopyrano[3,4-c]pyrrol-2-yl)butyl]-6-chloro-pyrido[2',3':4,5]thieno[3,2-d]pyrimidine-2,4(1H,3H)-dione hydrochloride] | 0.208 nM | 0.038 nM | 3.5 nM | 0.439 nM |  |  | 
7 | COc1ccc2c(n1)sc1c(=O)n(CCCCN3CC[C@H]4c5c(OC)cccc5OC[C@@H]4C3)c(=O)[nH]c12 [Example 103, 3-[4-((4aS,10bR)-trans-10-Methoxy-1,3,4,4a,5,10b-hexahydro-2H-[1]-benzopyrano[3,4-c]pyrido-3-yl)butyl]-7-methoxy-pyrido[3',2':4,5]thieno[3,2-d]pyrimidine-2,4(1H,3H)-dione hydrochloride] | 0.909 nM | 0.115 nM | 3.33 nM | 0.243 nM |  |  | 
8 | COc1ccc2c(c1)[C@@H]1CN(CCCn3c(=O)[nH]c4c(sc5ncccc54)c3=O)C[C@@H]1CO2 (racemic) [Example 77, 3-[3-((±)-cis-8-Methoxy-1,2,3,3a,4,9b-hexahydro-[1]-benzopyrano[3,4-c]pyrrol-2-yl)propyl]-pyrido[3',2':4,5]thieno[3,2-d]pyrimidine-2,4(1H,3H)-dione hydrochloride] |  |  |  |  | 99.7 nM | 27 nM | 106 nM

Source: patent EP0942911B1, “BENZOPYRANOPYRROLE AND BENZOPYRANOPYRIDINE ALPHA-1 ADRENERGIC COMPOUNDS” (Abbott Laboratories, priority 1996, dated 1998)
